For assay [1], the target named is T1, Recombinant human somatic ACE (sACE-1) (Homo sapiens, UniProt P12821). Conditions: pH 7.4.
The target in assay [2] is T1, Recombinant human somatic ACE (sACE-1). Nature of the assay: Time-dependent inactivation of sACE-1 with coreactants. The following applies: pH 7.4, 37 °C, same concentration as corresponding lisinopril complex.
Assay [3] has the same target. Nature of the assay: biochemical.
Assay [4] has the same target. Nature of the assay: Concentration-dependent inhibition of sACE-1. The following applies: inhibitor and substrate concentration varied, Dixon plots.

Molecules are shown by their SMILES. Where two headings read alike, the source gives them in different places. Where a SMILES comes first, the peptide text is derived from it.

T1 sequence (P12821 30-1261): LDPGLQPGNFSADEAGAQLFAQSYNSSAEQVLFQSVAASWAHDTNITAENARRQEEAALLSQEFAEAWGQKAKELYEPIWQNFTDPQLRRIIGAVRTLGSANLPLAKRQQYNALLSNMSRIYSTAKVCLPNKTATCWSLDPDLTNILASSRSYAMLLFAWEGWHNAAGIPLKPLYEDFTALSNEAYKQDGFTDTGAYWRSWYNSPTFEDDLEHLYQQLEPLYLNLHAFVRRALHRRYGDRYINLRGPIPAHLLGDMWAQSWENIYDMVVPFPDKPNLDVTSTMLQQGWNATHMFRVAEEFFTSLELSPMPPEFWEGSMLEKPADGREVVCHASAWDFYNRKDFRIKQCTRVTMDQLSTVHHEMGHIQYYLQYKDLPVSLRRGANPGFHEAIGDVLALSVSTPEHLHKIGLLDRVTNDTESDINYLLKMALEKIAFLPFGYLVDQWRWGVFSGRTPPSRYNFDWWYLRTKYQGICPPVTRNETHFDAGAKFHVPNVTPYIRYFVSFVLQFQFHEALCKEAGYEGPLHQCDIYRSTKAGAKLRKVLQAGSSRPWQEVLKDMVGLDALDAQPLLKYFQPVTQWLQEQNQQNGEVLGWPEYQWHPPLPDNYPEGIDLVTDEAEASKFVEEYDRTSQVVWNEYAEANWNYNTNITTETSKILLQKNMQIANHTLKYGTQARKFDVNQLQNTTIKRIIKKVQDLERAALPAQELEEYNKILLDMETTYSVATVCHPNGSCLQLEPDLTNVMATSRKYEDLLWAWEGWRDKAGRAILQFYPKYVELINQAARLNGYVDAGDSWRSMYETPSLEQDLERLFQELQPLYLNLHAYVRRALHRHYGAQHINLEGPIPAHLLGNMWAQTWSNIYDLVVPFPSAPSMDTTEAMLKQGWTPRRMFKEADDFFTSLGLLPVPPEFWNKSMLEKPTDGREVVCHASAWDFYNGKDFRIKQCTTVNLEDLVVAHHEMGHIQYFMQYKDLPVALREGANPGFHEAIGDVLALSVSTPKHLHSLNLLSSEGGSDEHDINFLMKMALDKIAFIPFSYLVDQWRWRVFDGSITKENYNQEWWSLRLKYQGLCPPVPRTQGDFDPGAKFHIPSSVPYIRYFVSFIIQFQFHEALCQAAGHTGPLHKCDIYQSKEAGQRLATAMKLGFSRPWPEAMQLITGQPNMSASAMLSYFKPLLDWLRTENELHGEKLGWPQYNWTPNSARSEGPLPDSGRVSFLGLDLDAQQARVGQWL

For orientation: IC50 means the point on the concentration scale where inhibition reaches its midpoint. Regarding `O=C([O-])CN(CCN(CC(=O)[O-])CC(=O)[O-])CC(=O)[O-].[Cu+2]` [Cu-EDTA], the IC50 in assay [1] stood at 26 µM. Also, the “k2 for inactivation of sACE-1, M-chelate without lisinopril (control)” value in assay [2] (Ascorbate) was 2,000 ± 3,000 {-- ^d} M^−1min^−1; in assay [2] (H2O2), < 3,000 {-- ^d} M^−1min^−1.

For the compound `O=C([O-])CN(CC(=O)[O-])CC(=O)O.[Cu+2]` [Cu-NTA], the IC50 in assay [1] stood at 36 µM.

With `O=C(O)CN1CCN(CC(=O)O)CCN(CC(=O)O)CCN(CC(=O)O)CC1` [DOTA, 1,4,7,10-tetraazacyclododecane-1,4,7,10-tetraacetic acid], the IC50 in assay [3] was 7 µM. In the case of `O=C(O)CN(CCN(CC(=O)O)CC(=O)O)CC(=O)O` [EDTA, Ethylenediamine-tetraacetic acid], the IC50 in assay [3] turned out to be 7.2 µM. Take `NCC(=O)NCC(=O)N[C@@H](Cc1cnc[nH]1)C(=O)O` [GGH] (H-Gly-Gly-His-OH): in assay [1], the IC50 was more than 100 µM. For the compound `O=C(O)CN(CC(=O)O)CC(=O)O` [NTA, Nitrilotriacetic acid], in assay [3], the half-maximal inhibitory concentration (IC50) was 32 µM. For `NCCCC[C@H](N[C@@H](CCc1ccccc1)C(=O)O)C(=O)N1CCC[C@H]1C(=O)O` [lisinopril], the “mode of inhibition of sACE-1” value in assay [4] is given as “competitive”.

The values above are taken from paper PMC3401419 (Journal of the American Chemical Society, 2012).
